Experimental data taken from patent US20040214270A1, “Isocitrate dehydrogenase, gene thereof, and use of the same in the treatment of obesity, hyperlipidemia, and fattly liver in lipid biosynthesis” (priority 2000, published 2004).
“Also recorded” adds a separate entry of the source.

Assays:
[1] = tested on: NIH3T3 L1 cells into which only pLNCX vector was introduced; assay: Differentiation of adipocytes and oil deposition according to concentration of NADPH (Oil-Red-O); format: cell-based, mouse
Procedure: To examine the influence of IDPc on the synthesis of fatty acids, the transfectant cell lines were cultured in 10% FBS-supplemented DMEM containing insulin 5 μg/ml, 0.5 mM 3-isobutyl-1-methylxanthine (IBMX, Sigma), 1 μM dexamethasone (DEX), and penicillin-streptomycin (Gibco BRL), each 50,000 units, for two days to increase the counts of the cells to a density of approximately 3×10^4 cells/cm^2. Thereafter, the cells were further cultured for 12 days in DMEM free of IBMX and DEX while the medium was refreshed every other day. Cell culturing was carried out in a CO2 incubator at 37° C. under a wet, 5% CO2 atmosphere.
After culturing, the cells were treated with Oil-Red-O, which specifically dyes oil, to observe oil deposits formed in adipocytes. In this connection, the medium was depleted, after which 10 ml of a cacodylate buffer (90 mM cacodylate, pH 7.2, 2% formaldehyde, 2.5% glutaraldehyde, 0.025% CaCl2, 5% sucrose) was added to the cells, which was then allowed to stand at 4° C. for 1 hour. After removal of the buffer, 5 ml of Oil-Red-O in 40% isopropanol was added to the cells and slowly mixed over 1 hour, followed by washing with 40% isopropanol.
The effect of NADPH, a metabolic product of IDPc, on the deposition of cellular oils was quantitatively measured with Oil-Red-O, a dye specific for lipids. […]

isocitrate dehydrogenase = isocitrate dehydrogenase (Mus musculus, UniProt O88844); assay: Screening of inhibitors against isocitrate dehydrogenase (spectrophotometry, absorbance at 340 nm); format: biochemical; details: change in absorbance at 340 nm with time, 25° C.
Procedure: In this connection, spectrophotometry is very useful. In more detail, first, a spectrophotometer is adjusted to zero absorbance at 340 nm using a mixture of a ten-fold concentrated reaction buffer plus 3rd distilled water. After a crystal cuvette containing the 10× buffer, a test sample and 3rd distilled water is installed in the spectrophotometer, isocitrate dehydrogenase is added to the cuvette and a measurement is made of the change in absorbance at 340 nm with time.
Because an absorbance decreases faster in the cuvette containing a greater concentration of a sample inhibitory against the activity of the enzyme, the analysis of the spectrophotometric data enables the screening of inhibitors of isocitrate dehydrogenase.
An assay buffer (50 mM MOPS, pH 7.2, 35.5 mM triethanolamine, pH 7.2, 2 mM NADP^+, 2 mM MgCl2, 5 mM isocitrate, rotenone 1 mg/ml) and test samples were all prepared at 10× concentration. Enzymatic reactions necessary for the selection were conducted in a final volume of 1 ml at 25° C. in crystal cuvette. For use, the concentrated test samples were diluted with 3rd distilled water. The assay buffer, enzyme inhibitors, and isocitrate dehydrogenase, which all at 10× concentration, were maintained at low temperature, i.e., in ice.
A spectrophotometer was first subjected to null adjustment at 340 nm using the 10× assay buffer and 3rd distilled water. 100 μl of the sample was added, along with 100 μl of the 10× assay buffer, in a crystal cuvette, and mixed with 600 μl of 3rd distilled water. After the completion of the null adjustment, the sample cuvette was installed in the spectrophotometer, followed by adding 200 μl of isocitrate dehydrogenase and mixing the solution with the aid of a pipette. Changes in absorbance at 340 nm were monitored with time. In principle, an absorbance decreases faster in the cuvette containing a greater concentration of a sample inhibitory against the activity of the enzyme. Based on this principle, the quantification of the spectrophotometric data enabled the screening of inhibitors of isocitrate dehydrogenase.

3T3-L1 cells = assay: Prevention of oil deposition in 3T3-L1 by isocitrate dehydrogenase inhibitor (Oil-Red-O); format: cell-based, mouse; details: cells treated with inhibitor vs no isocitrate inhibitors, FIG. 9
Source text: After being treated with the isocitrate dehydrogenase inhibitors methyl isocitric acid and oxalomalic acid, 3T3-L1 cells, which remain undifferentiated, were examined for their differentiation to adipocytes. Effects of the isocitrate dehydrogenase inhibitors on fatty acid synthesis could be identified through the visualization using Oil-Red-O, a oil-specific dye.

rats = assay: Restrictive effect of isocitrate dehydrogenase inhibitor on obesity in rats; format: in vivo, rat
Procedure: 26 weeks after birth, rats were compared for cellular lipid deposition when they were treated with no isocitrate dehydrogenase inhibitors and methyl isocitric acid.
A container suitable for receiving a rat was placed on a scale which was then subjected to null adjustment, after which a rat was carefully put in the container.
The livers and adipose tissues taken from inhibitor-administered rats and non-administered rats were homogenized in a buffer (0.32 M sucrose, 0.01 M Tris-Cl pH 7.4) and centrifuged at 3,000×g for 10 min. Again, the supernatant was centrifuged at 10,000×g for 15 min. A pure cytosolic fraction was obtained as the supernatant. The enzyme activity of IDPc was determined by measuring the change in the production amount of NADPH in a buffer (50 mM MOPS, pH 7.2, 35.5 mM triethanolamine, pH 7.2, 2 mM NADP^+, 2 mM MgCl2, 5 mM isocitrate, and rotenone 1 μg/ml) maintained at 25° C. Using a spectrophotometer, absorbance at 340 nm was measured for 2 min to quantify the amount of NADPH produced by the IDPc contained in the cytoplasmic protein, thereby determining the enzyme activity of IDPc. For the quantification of the enzyme, the amount which produced 1 μM of NADPH in 1 min was defined as 1 unit. Protein quantification was performed according to the Bradford assay.
In order to measure the blood triglyceride levels and total cholesterol, assay kits manufactured by Asan Pharmaceutics. Co. Ltd. were used. After being treated with an anti-coagulant, blood taken from the inhibitor-administered rats and non-administered rats was centrifuged to obtain sera. 10 μl of each of the sera was mixed with 1.5 ml of a triglyceride-assay kit [a solution of lipoproteinase 10800 U, glycerol kinase 5.4 U, peroxidase 135000 U, and L-α-glycerophosphate oxidase 160 U in 72 ml of N,N-bis(2-hydroxyethyl)-2-aminomethanesulfonic acid buffer] or 1.5 ml of a cholesterol enzyme-assay kit (a mixture of an enzyme solution (cholesterol esterase 20.5 KU/l, cholesterol oxidase 10.7 KU/l, and sodium hydroxide 1.81 g/l) and a buffer (potassium monophosphate 13.6 g/l, phenol 1.88 g/l) in the proportions of 1:1) and incubated at 37° C. for 5 min for reaction. In a microplate reader, a measurement was done by reading absorbance at 500 nm for cholesterol and at 540 nm for triglyceride, so as to quantify blood levels of triglyceride and total cholesterol. In connection to the quantification of triglyceride and cholesterol, there was utilized a standard curve which was obtained by applying the above procedure to various known concentrations of a standard solution.
A predetermined amount of the liver was taken from both the inhibitor-administered mice and non-administered mice and homogenized in 1 ml of CIAA (chloroform:isoamyl alcohol=2:1 v/v). 100 μl of the homogenate was dissolved in 200 μl of pure ethyl alcohol and mixed with 500 μl of each of the assay kits for triglyceride and cholesterol, manufactured by Asan Pharmaceutics, Co. Ltd., containing 0.5% Triton X-100 and 3 mM sodium cholate, followed by incubation at 37° C. for 10 min. After being added with 800 μl of water, each sample was measured for liver triglyceride and total cholesterol levels with the aid of a microplate reader in the same manner as in above. Likewise, the above procedure was applied to various known concentrations of a standard solution to acquire a standard curve which was used to quantify triglyceride and cholesterol levels in the liver.

Sequence of isocitrate dehydrogenase (O88844 whole entry): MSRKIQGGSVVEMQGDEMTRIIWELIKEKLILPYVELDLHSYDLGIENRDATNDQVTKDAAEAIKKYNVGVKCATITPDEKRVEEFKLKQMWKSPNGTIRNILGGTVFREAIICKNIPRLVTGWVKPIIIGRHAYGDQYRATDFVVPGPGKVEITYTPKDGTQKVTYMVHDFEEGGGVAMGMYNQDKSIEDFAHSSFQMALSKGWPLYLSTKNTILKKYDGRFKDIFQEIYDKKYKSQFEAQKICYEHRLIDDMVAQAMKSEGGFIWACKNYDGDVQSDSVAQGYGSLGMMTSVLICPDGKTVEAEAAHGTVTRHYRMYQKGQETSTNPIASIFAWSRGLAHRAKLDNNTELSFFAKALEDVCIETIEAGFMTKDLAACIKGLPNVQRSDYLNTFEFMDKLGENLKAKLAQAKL

SMILES: NC(=O)C1=CN([C@@H]2O[C@H](COP(=O)(O)OP(=O)(O)OC[C@H]3O[C@@H](n4cnc5c(N)ncnc54)[C@H](OP(=O)(O)O)[C@@H]3O)[C@@H](O)[C@H]2O)C=CC1 [NADPH]
- oil deposits formed within cells (Oil-Red-O) ([1]; NADPH added at 0 μM, 25 μM and 50 μM to the media during differentiation into adipocytes): accumulated greater amounts of oils; also recorded: larger intracellular lipid deposits
- differentiation of adipocytes ([1]; differentiated in the presence of NADPH, increasing concentration): direct positive influence on the differentiation of adipocytes; also recorded: higher differentiation rates

SMILES: CC(NC(C)(C)C)C(=O)c1cccc(Cl)c1 (stereo not shown) [bupropion]
- inhibitory activity against isocitrate dehydrogenase (isocitrate dehydrogenase): only a little inhibitory activity; also recorded: a little inhibitory effect

SMILES: CC(O)(C(=O)O)C(CC(=O)O)C(=O)O (stereo not shown) [methyl isocitric acid]
- inhibitory activity against isocitrate dehydrogenase (isocitrate dehydrogenase): strong inhibitory activity; also recorded: definite inhibitory activity
- cellular oil deposits dyed with Oil-Red-O (3T3-L1 cells): reducing cellular oil deposits
- arteriosclerosis index, lower (rats): 10
- body weight, inhibitor-administered vs non-administered rats (rats; 10-weeks old): No significant difference
- weight of epididymal fat pad, lower compared to non-administered rats (rats; FIG. 10a): about 12%
- weight of the liver, inhibitor-administered vs normal rats (rats; FIG. 10a): no difference
- blood level of total cholesterol, lower compared to non-administered rats (rats; FIG. 10b): 11%
- blood level of triglyceride, lower compared to non-administered rats (rats; FIG. 10b): 20%
- high-density lipoproteins (HDL) level, higher compared to non-administered rats (rats; blood, FIG. 10c): 11%

SMILES: NC(=O)c1cccnc1 [nicotine amide]
- inhibitory activity against isocitrate dehydrogenase (isocitrate dehydrogenase): No inhibitory activity

SMILES: O=C(O)c1cccnc1 [nicotinic acid]
- inhibitory activity against isocitrate dehydrogenase (isocitrate dehydrogenase): No inhibitory activity

SMILES: O=C(O)C(=O)C(C(=O)O)C(O)C(=O)O (stereo not shown) [oxalomalic acid]
- inhibitory activity against isocitrate dehydrogenase (isocitrate dehydrogenase): strong inhibitory activity; also recorded: definite inhibitory activity
- cellular oil deposits dyed with Oil-Red-O (3T3-L1 cells): reducing cellular oil deposits
